From patent EP0435682A2, “The use of inclusion complexes of prostaglandins with cyclodextrins in the treatment of ocular hypertension” (ALLERGAN, INC., priority 1989, dated 1991)
Marks after values point to notes of the source that are not given here.

Test system: New Zealand Albino rabbits
Assay: Intraocular pressure by applanation pneumatonometry after topical application to one eye
Type: in vivo
Conditions: 0.1% (w/v) solution, 25 µl to the surface of one eye
Method: Prostaglandin F2α TRIS salt was dissolved in either distilled water or in a 5% aqueous hydroxypropyl-β-cyclodextrin solution, to provide 0.1% (w/v) solutions. Two groups of experimental New Zealand Albino rabbits, containing 6 and 8 rabbits, respectively, were treated by administering 25µℓ of each solution to the surface of one eye. The contralateral eye received vehicle as a control. Intraocular pressure (IOP) was measured by applanation pneumatonometry model (Model 3ORT, manufactured by Digilab) at the time of administration, and at intervals of 1, 2, 3, 4, and 6 hours thereafter.

Prostaglandin F2α TRIS salt [Prostaglandin F2α (in aqueous)]
CHANGES IN INTRAOCULAR PRESSURE (mmHg) AT PREDETERMINED TIMES (HR) (1.0 HR after administration): -6.3* mmHg | CHANGES IN INTRAOCULAR PRESSURE (mmHg) AT PREDETERMINED TIMES (HR) (2.0 HR after administration): -3.0 mmHg | CHANGES IN INTRAOCULAR PRESSURE (mmHg) AT PREDETERMINED TIMES (HR) (3.0 HR after administration): -3.0 mmHg | CHANGES IN INTRAOCULAR PRESSURE (mmHg) AT PREDETERMINED TIMES (HR) (4.0 HR after administration): -1.5 mmHg | CHANGES IN INTRAOCULAR PRESSURE (mmHg) AT PREDETERMINED TIMES (HR) (6.0 HR after administration): 0 mmHg
